Laboratory results published in ChEMBL document CHEMBL4014302, “Studies on anti-hepatoma activity of Annona squamosa L. pericarp extract” (Bioorg Med Chem Lett, 2017).

How the values were obtained:
[1] = system: SMMC-7721; assay: Induction of apoptosis in human SMMC7721 cells assessed as condensed nuclei after 24 hrs by Hoechst 33258 staining based fluorescent microscopic method; type: functional, cell-based
[2] = system: SMMC-7721; assay: Cell cycle arrest in human SMMC7721 cells assessed as G1 phase accumulation at half IC50 after 24 hrs by propidium iodide-staining based flow cytometry (reference value: 57.6 %); type: functional
[3] = system: SMMC-7721; assay: Induction of apoptosis in human SMMC7721 cells assessed as live cells at half IC50 after 24 hrs by annexin V/PI-staining based flow cytometry (reference value: 97.3 %); type: functional
[4] = system: SMMC-7721; assay: Cell cycle arrest in human SMMC7721 cells assessed as G1 phase accumulation at IC50 after 24 hrs by propidium iodide staining based flow cytometry (reference value: 57.6 %); type: functional
[5] = system: SMMC-7721; assay: Induction of apoptosis in human SMMC7721 cells after 24 hrs by annexin V/PI-staining based flow cytometry; type: functional, cell-based
[6] = system: SMMC-7721; assay: Induction of apoptosis in human SMMC7721 cells assessed as late apoptotic cells at IC50 after 24 hrs by annexin V/PI-staining based flow cytometry (reference value: 0.5 %); type: functional
[7] = system: SMMC-7721; assay: Induction of apoptosis in human SMMC7721 cells assessed as necrotic cells at IC50 after 24 hrs by annexin V/PI-staining based flow cytometry (Rvb =1.6 %); type: functional
[8] = system: SMMC-7721; assay: Induction of apoptosis in human SMMC7721 cells assessed as early apoptotic cells at half IC50 after 24 hrs by annexin V/PI-staining based flow cytometry (reference value: 0.6 %); type: functional
[9] = system: SMMC-7721; assay: Cell cycle arrest in human SMMC7721 cells assessed as G2/M phase accumulation at half IC50 after 24 hrs by propidium iodide-staining based flow cytometry (reference value: 28.8 %); type: functional
[10] = system: SMMC-7721; assay: Cell cycle arrest in human SMMC7721 cells assessed as sub-G1 phase accumulation at half IC50 after 24 hrs by propidium iodide-staining based flow cytometry (reference value: 0.8 %); type: functional
[11] = system: SMMC-7721; assay: Cell cycle arrest in human SMMC7721 cells assessed as S phase accumulation at IC50 after 24 hrs by propidium iodide staining based flow cytometry (reference value: 12.7 %); type: functional
[12] = system: SMMC-7721; assay: Induction of apoptosis in human SMMC7721 cells assessed as broken nuclei after 24 hrs by Hoechst 33258 staining based fluorescent microscopic method; type: functional, cell-based
[13] = system: SMMC-7721; assay: Cytotoxicity against human SMMC7721 cells after 48 hrs by MTT assay; type: functional, cell-based; conditions: SMMC-7721, 48 h
[14] = system: SMMC-7721; assay: Induction of apoptosis in human SMMC7721 cells assessed as necrotic cells at half IC50 after 24 hrs by annexin V/PI-staining based flow cytometry (Rvb =1.6 %); type: functional
[15] = system: SMMC-7721; assay: Cell cycle arrest in human SMMC7721 cells assessed as S phase accumulation at half IC50 after 24 hrs by propidium iodide-staining based flow cytometry (reference value: 12.7 %); type: functional
[16] = system: SMMC-7721; assay: Cell cycle arrest in human SMMC7721 cells assessed as G2/M phase accumulation at IC50 after 24 hrs by propidium iodide staining based flow cytometry (reference value: 28.8 %); type: functional
[17] = system: SMMC-7721; assay: Induction of apoptosis in human SMMC7721 cells assessed as late apoptotic cells at half IC50 after 24 hrs by annexin V/PI-staining based flow cytometry (reference value: 0.5 %); type: functional
[18] = system: SMMC-7721; assay: Induction of apoptosis in human SMMC7721 cells assessed as live cells at IC50 after 24 hrs by annexin V/PI-staining based flow cytometry (reference value: 97.3 %); type: functional
[19] = system: SMMC-7721; assay: Induction of apoptosis in human SMMC7721 cells assessed as early apoptotic cells at IC50 after 24 hrs by annexin V/PI-staining based flow cytometry (reference value: 0.6 %); type: functional
[20] = system: SMMC-7721; assay: Cell cycle arrest in human SMMC7721 cells assessed as sub-G1 phase accumulation at IC50 after 24 hrs by propidium iodide staining based flow cytometry (reference value: 0.8 %); type: functional
[21] = system: H22; assay: Antitumor activity against mouse H22 cells implanted in Kunming mouse assessed as tumor growth inhibition at 15 mg/kg, po administered once daily for 7 days relative to control; type: functional; conditions: 168 h, read-out: TGI
[22] = system: H22; assay: Antitumor activity against mouse H22 cells implanted in Kunming mouse assessed as tumor weight at 15 mg/kg, po administered once daily for 7 days (reference value: 0.66 +/- 0.18 g); type: functional
[23] = system: SMMC-7721; assay: Induction of apoptosis in human SMMC7721 cells assessed as increase in cleaved caspase 9 levels after 24 hrs by Western blot method; type: functional, cell-based
[24] = system: SMMC-7721; assay: Induction of apoptosis in human SMMC7721 cells assessed as decrease in Bcl2 levels after 24 hrs by Western blot method; type: functional, cell-based
[25] = system: SMMC-7721; assay: Induction of apoptosis in human SMMC7721 cells assessed as increase in cleaved caspase 3 levels after 24 hrs by Western blot method; type: functional, cell-based
[26] = system: SMMC-7721; assay: Induction of apoptosis in human SMMC7721 cells assessed as increase in cleaved caspase 8 levels after 24 hrs by Western blot method; type: functional, cell-based
[27] = system: SMMC-7721; assay: Induction of apoptosis in human SMMC7721 cells assessed as increase in Bax levels after 24 hrs by Western blot method; type: functional, cell-based

## CC1=C[C@@]23CC[C@H]4[C@@](C)(CCC[C@@]4(C)C(=O)O)[C@@H]2CC[C@H]1C3
[1]
  Activity: Dose-dependent effect
[2]
  Activity: 58.5%
[3]
  Activity: 85.2%
[4]
  Activity: 60.9%
[5]
  Activity: Dose-dependent effect
[6]
  Activity: 7.4%
[7]
  Activity: 6.4%
[8]
  Activity: 7.8%
[9]
  Activity: 25.5%
[10]
  Activity: 1.1%
[11]
  Activity: 11%
[12]
  Activity: Dose-dependent effect
[13]
  IC50: 45.7 µM
[14]
  Activity: 3.4%
[15]
  Activity: 14.8%
[16]
  Activity: 26.9%
[17]
  Activity: 3.5%
[18]
  Activity: 75.4%
[19]
  Activity: 10.8%
[20]
  Activity: 0.3%

## O=c1[nH]cc(F)c(=O)[nH]1 [FLUOROURACIL]
[21]
  inhibition in vivo at 15 mg/kg: 44.7%
[22]
  Activity: 0.36 g

## C=C1C[C@@]23CC[C@H]4[C@@](C)(CCC[C@@]4(C)C(=O)O)[C@@H]2CC[C@H]1C3
[23]
  Activity: Dose-dependent effect
[1]
  Activity: Dose-dependent effect
[2]
  Activity: 61%
[3]
  Activity: 80.4%
[4]
  Activity: 73.3%
[5]
  Activity: Dose-dependent effect
[6]
  Activity: 5.2%
[7]
  Activity: 2.6%
[8]
  Activity: 10.7%
[9]
  Activity: 26.9%
[10]
  Activity: 1%
[11]
  Activity: 7.7%
[12]
  Activity: Dose-dependent effect
[24]
  Activity: Dose-dependent effect
[13]
  IC50: 67.4 µM
[25]
  Activity: Dose-dependent effect
[14]
  Activity: 3.8%
[15]
  Activity: 11.2%
[16]
  Activity: 18%
[17]
  Activity: 5.1%
[26]
  Activity: Dose-dependent effect
[18]
  Activity: 79.3%
[19]
  Activity: 12.9%
[20]
  Activity: 1.2%
[27]
  Activity: Dose-dependent effect
